The structures appear in SMILES notation.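 Test compounds were applied to cells in 96-well plates for 48 hours at 5 doses. TGI is the concentration that stops growth completely.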

Among the test systems are A498 renal; HCC-2998 colon; HT29 colon; KM12 colon; MDA-MB-435; MDA-N; NCI-H226 lung; NCI/ADR-RES ovarian; OVCAR-3 ovarian; OVCAR-8 ovarian; SF-268 CNS; SF-295 CNS; SNB-75 CNS; T-47D breast; TK-10 renal; UACC-62 melanoma.
Common to all, as to assay: inhibition of tumour cell growth, NCI panel, 48 h

Regarding `Cc1ccc2c(ccc(/C=C/c3ccc(O)c4ncccc34)[n+]2C)c1`, the TGI in the assay on A498 renal is 26.5 µM; with HCC-2998 colon, 20.7 µM; with HT29 colon it was 27.7 µM; with KM12 colon, 33.3 µM; with MDA-MB-435, more than 52.1 µM; in the assay with MDA-N, more than 44.9 µM. The TGI was 46.5 µM in the assay with NCI-H226 lung; more than 100 µM in the assay with NCI/ADR-RES ovarian; 10.4 µM in the assay with OVCAR-3 ovarian; 24 µM in the assay on OVCAR-8 ovarian; 22 µM in the assay on SF-268 CNS; 34.9 µM with SF-295 CNS. The TGI with SNB-75 CNS was 43.7 µM; in the assay with T-47D breast it was more than 32.1 µM; in the assay with TK-10 renal, 38.9 µM; in the assay with UACC-62 melanoma it was 46.5 µM.
In the case of `OC(CC1CCCCN1)c1ccc2c(c1)oc1ccccc12` (centres undefined), the TGI in the assay on A498 renal was 64.7 µM; in the assay on HCC-2998 colon it was more than 100 µM; in the assay with HT29 colon, more than 100 µM; in the assay on KM12 colon, more than 100 µM; with MDA-MB-435, more than 100 µM; with MDA-N, more than 100 µM. Further, the TGI with NCI-H226 lung, in the assay with NCI/ADR-RES ovarian, in the assay on OVCAR-3 ovarian, in the assay with OVCAR-8 ovarian, with SF-268 CNS and with SF-295 CNS was more than 100 µM in each case. The TGI was more than 100 µM in the assay on SNB-75 CNS, more than 100 µM in the assay on T-47D breast, more than 100 µM in the assay with TK-10 renal and 44.7 µM in the assay with UACC-62 melanoma.
Take `COC(=O)C1Cc2cc3c(cc2C1=O)CCC3` (centres undefined): the TGI in the assay on A498 renal, in the assay on HCC-2998 colon, in the assay with HT29 colon, in the assay on KM12 colon, in the assay with MDA-MB-435 and in the assay on MDA-N was more than 100 µM each time. The TGI in the assay on NCI-H226 lung, in the assay on NCI/ADR-RES ovarian, in the assay with OVCAR-3 ovarian, with OVCAR-8 ovarian, in the assay with SF-268 CNS and with SF-295 CNS was more than 100 µM throughout. The TGI in the assay on SNB-75 CNS, with T-47D breast, with TK-10 renal and in the assay with UACC-62 melanoma was more than 100 µM in each case.
Take `O=C(/C=C/c1ccc(O)c(O)c1)OCC(OC(=O)/C=C/c1ccc(O)c(O)c1)C(=O)O` (centres undefined): the TGI in the assay on A498 renal, with HCC-2998 colon, in the assay on HT29 colon, with KM12 colon, in the assay with MDA-MB-435 and in the assay with MDA-N was more than 100 µM throughout. Further, the TGI with NCI-H226 lung, in the assay on NCI/ADR-RES ovarian, in the assay with OVCAR-3 ovarian, in the assay on OVCAR-8 ovarian, with SF-268 CNS and with SF-295 CNS was more than 100 µM in each case. The TGI in the assay on SNB-75 CNS, with T-47D breast, in the assay on TK-10 renal and in the assay with UACC-62 melanoma was more than 100 µM throughout.
Regarding `O=C(O)c1c2c(cc3c1CC(Cc1ccccc1)C3=O)CCC2` (centres undefined), the TGI with A498 renal, with HCC-2998 colon, with HT29 colon, in the assay on KM12 colon, with MDA-MB-435 and in the assay on MDA-N was more than 100 µM each time. Further, the TGI in the assay with NCI-H226 lung, with NCI/ADR-RES ovarian, with OVCAR-3 ovarian, in the assay on OVCAR-8 ovarian, with SF-268 CNS and in the assay with SF-295 CNS was more than 100 µM throughout. The TGI in the assay on SNB-75 CNS, in the assay on T-47D breast, with TK-10 renal and in the assay with UACC-62 melanoma was more than 100 µM each time.
Take `OC(CNc1ccccn1)c1ccccc1` (centres undefined): the TGI with A498 renal, in the assay with HCC-2998 colon, in the assay with HT29 colon, with KM12 colon, in the assay on MDA-MB-435 and in the assay with MDA-N was more than 100 µM each time. Further, the TGI in the assay with NCI-H226 lung, in the assay with NCI/ADR-RES ovarian, in the assay on OVCAR-3 ovarian, in the assay with OVCAR-8 ovarian, with SF-268 CNS and in the assay on SF-295 CNS was more than 100 µM each time. In addition, the TGI in the assay on SNB-75 CNS, in the assay on T-47D breast, with TK-10 renal and in the assay with UACC-62 melanoma was more than 100 µM in each case.
Consider `CC1(C)N/C(=C\[N+](=O)[O-])C(C)(C)N1O`, for which the TGI with A498 renal, with HCC-2998 colon, in the assay on HT29 colon, with KM12 colon, with MDA-MB-435 and in the assay on MDA-N was more than 10 µM each time. The TGI in the assay with NCI-H226 lung, with NCI/ADR-RES ovarian, in the assay on OVCAR-3 ovarian, in the assay on OVCAR-8 ovarian, in the assay with SF-268 CNS and in the assay on SF-295 CNS was more than 10 µM each time. Moreover, the TGI in the assay with SNB-75 CNS, in the assay with T-47D breast, with TK-10 renal and in the assay on UACC-62 melanoma was more than 10 µM throughout.
For the compound `Clc1ccc(CCN(CCc2ccc(Cl)c(Cl)c2)CCN2CCCC2)cc1Cl`, the TGI in the assay on A498 renal turned out to be 3.23 µM; with HCC-2998 colon, 3.19 µM; in the assay with HT29 colon it was 3.41 µM; in the assay on KM12 colon it was 3.04 µM; in the assay with MDA-MB-435, 2.75 µM; in the assay on MDA-N it was 3.32 µM. Further, the TGI is 4.07 µM with NCI-H226 lung; 3.39 µM in the assay with NCI/ADR-RES ovarian; 3.2 µM in the assay with OVCAR-3 ovarian; 3.06 µM with OVCAR-8 ovarian; 3.73 µM in the assay on SF-268 CNS; 3.3 µM in the assay with SF-295 CNS. The TGI with SNB-75 CNS was 4.73 µM; in the assay with T-47D breast it was 12.3 µM; with TK-10 renal, 3.17 µM; with UACC-62 melanoma, 3.06 µM.
Consider `Cc1ccc(C(=O)N/N=C(\N=Nc2cccc([N+](=O)[O-])c2)c2ccc(N(CCC#N)CCC#N)cc2C)cc1`, for which the TGI with A498 renal is more than 81.6 µM; in the assay on HCC-2998 colon it was more than 100 µM; in the assay on HT29 colon it was more than 100 µM; in the assay on KM12 colon it was 61.6 µM; with MDA-MB-435, 54.3 µM; in the assay with MDA-N it was more than 78.4 µM. For the same compound, the TGI in the assay with NCI-H226 lung is more than 26.2 µM; in the assay on NCI/ADR-RES ovarian it was more than 95.4 µM; in the assay with OVCAR-3 ovarian, 6.71 µM; in the assay on OVCAR-8 ovarian it was more than 91.6 µM; with SF-268 CNS it was more than 100 µM; with SF-295 CNS, more than 92 µM. Also, the TGI is 74.1 µM with SNB-75 CNS, 50.7 µM in the assay with T-47D breast, more than 100 µM with TK-10 renal and more than 100 µM in the assay on UACC-62 melanoma.
